According to PubChem BioAssay (NCI):
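Values below derive from 48-hour exposures of cells grown in 96-well plates, with endpoints linearly interpolated between the two concentrations bracketing the appropriate inhibition level. The concentration for 50% growth inhibition is given as GI50. The concentration for full growth arrest is given as TGI.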

How the values were obtained:
Assay in all cases: NCI anticancer screen, dose series, 48 h
IGROV1 ovarian = tested on: IGROV1 ovarian
KM12 colon = tested on: KM12 colon
OVCAR-4 ovarian = tested on: OVCAR-4 ovarian
OVCAR-8 ovarian = tested on: OVCAR-8 ovarian
RXF 393 renal = tested on: RXF 393 renal
SF-295 CNS = tested on: SF-295 CNS
SK-MEL-2 melanoma = tested on: SK-MEL-2 melanoma
SNB-19 CNS = tested on: SNB-19 CNS
SNB-75 CNS = tested on: SNB-75 CNS

SMILES | TGI (IGROV1 ovarian) [µM] | TGI (KM12 colon) [µM] | TGI (OVCAR-4 ovarian) [µM] | TGI (OVCAR-8 ovarian) [µM] | TGI (RXF 393 renal) [µM] | TGI (SF-295 CNS) [µM] | TGI (SK-MEL-2 melanoma) [µM] | TGI (SNB-19 CNS) [µM] | TGI (SNB-75 CNS) [µM] | GI50 (IGROV1 ovarian) [nM] | GI50 (KM12 colon) [nM] | GI50 (OVCAR-4 ovarian) [nM] | GI50 (RXF 393 renal) [nM] | GI50 (SF-295 CNS) [nM] | GI50 (SK-MEL-2 melanoma) [nM] | GI50 (SNB-19 CNS) [nM] | GI50 (SNB-75 CNS) [nM]
CCCCCCCCCCCCNC(=S)OCCCC | > 100 | > 100 | > 100 | > 100 | > 100 | > 100 | 62.2 | > 100 | > 100 | – | – | – | – | – | – | – | –
CC1Nc2ccccc2NC1C=C(C#N)C#N (configuration not stated) | 37.8 | 31.9 | 31.6 | 23.1 | 31.3 | 28.9 | 37.7 | 36.3 | 30.3 | – | – | – | – | – | – | – | –
CN1C=C(C(N)=O)Cc2ccsc21 | > 100 | > 100 | > 100 | > 100 | > 100 | > 100 | > 100 | > 100 | > 100 | – | – | – | – | – | – | – | –
O=C1c2ccccc2C(=O)N1CCN(CCN1C(=O)c2ccccc2C1=O)Cc1ccccc1 | – | > 100 | > 100 | > 100 | > 100 | > 100 | > 100 | > 100 | – | – | – | – | – | – | – | – | –
O=C1CC2=CCCC2O1 (configuration not stated) | > 100 | > 100 | > 100 | > 100 | > 100 | > 100 | > 100 | > 100 | > 100 | – | – | – | – | – | – | – | –
NNC(=S)N/N=C(\c1nc2ccc(Cl)cc2[nH]c1=O)C(O)c1cccc([N+](=O)[O-])c1 (configuration not stated) | > 100 | > 100 | > 100 | > 100 | > 100 | > 100 | > 100 | > 100 | > 100 | – | – | – | – | – | – | – | –
CC[C@@]1(O)C(=O)OCc2c1cc1n(c2=O)Cc2cc3c(N)c(OC)ccc3nc2-1 | 2.45 | 2.24 | 1.36 | – | 0.426 | 0.41 | 1.47 | > 61.9 | 0.265 | 223 | 292 | 229 | 70.8 | 26.7 | 439 | < 23.8 | 33.9
Cc1ccccc1-c1cc(=O)c2cc(C)c(C)c(C(=O)O)c2o1 | > 100 | > 100 | > 100 | > 100 | – | > 100 | > 100 | > 100 | > 100 | – | – | – | – | – | – | – | –
COc1ccc(C2=NC(CO)[C@H](c3ccccc3)O2)cc1OC (some centres not stated) | > 100 | > 100 | > 100 | > 100 | – | > 100 | > 100 | > 100 | > 100 | – | – | – | – | – | – | – | –
NC(=O)c1c(-c2ccccc2)c(-c2ccccc2)cc2c(=O)c3ccccc3[nH]c12 | 74.3 | 78.6 | 30.4 | 50 | – | > 100 | 45.1 | 52.4 | 41.7 | – | – | – | – | – | – | – | –
O=C1C=C(c2ccccc2)NC1(c1ccccc1)c1cc(-c2ccccc2)[nH]c1-c1ccccc1 (configuration not stated) | > 100 | > 100 | > 100 | > 100 | 0.586 | > 100 | > 100 | > 100 | > 100 | – | – | – | – | – | – | – | –
CCOC(=O)N1C/C(=C\c2ccc(N(C)C)cc2)C(=O)/C(=C/c2ccc(N(C)C)cc2)C1 | > 100 | > 100 | > 100 | > 100 | > 100 | > 100 | > 100 | > 100 | > 100 | – | – | – | – | – | – | – | –
COc1ccc(C)cc1-c1ccc(-c2cc(C)ccc2OC)o1 | > 100 | > 100 | > 100 | > 100 | – | > 100 | > 100 | > 100 | > 100 | – | – | – | – | – | – | – | –
CN(C)c1ccc(-c2nc(N)nc3c2CCCC3)cc1 | > 100 | > 100 | – | > 100 | > 100 | > 100 | > 100 | > 100 | > 100 | – | – | – | – | – | – | – | –
COc1cc(Br)c(C=Nc2cccc3ccc(OS(=O)(=O)c4ccc([N+](=O)[O-])cc4)cc23)cc1OC | > 100 | > 100 | > 100 | > 100 | > 100 | > 100 | > 100 | > 100 | – | – | – | – | – | – | – | – | –
O=S(=O)(c1ccccc1)C1(C2(S(=O)(=O)c3ccccc3)CCN=N2)CCN=N1 (configuration not stated) | > 100 | > 100 | > 100 | > 100 | > 100 | > 100 | > 100 | > 100 | > 100 | – | – | – | – | – | – | – | –
O=C1C[C@@H]2[C@@H](C=CC23CCCC3)N1O | > 100 | > 100 | > 100 | > 100 | > 100 | > 100 | > 100 | > 100 | > 100 | – | – | – | – | – | – | – | –
